Earlier results in US12137716B2, “Methods of liver disease treatment” (priority 2015, dated 2024).
“Also recorded” adds a separate entry of the source.

Legend:
[1] = test system: mice fed either a MCD or MD diet
NASH model mice = conditions: NASH mouse model
patients with severe ALD = conditions: added to corticosteroids
[2] = oral administration
[3] = test system: patients with both alcoholic and non-alcoholic liver diseases; conditions: patients with liver disease
[4] = test system: rats and baboons fed ethanol
[5] = test system: ethanol-induced fibrotic mouse model
[6] = test system: CCl (4) induced cirrhosis; conditions: CCl4 induced

## N=C(N)NCCC[C@H](N)C(=O)O [Arginine]
Patients with cirrhosis
  hepatic microcirculation and tissue oxygenation: improves hepatic microcirculation and tissue oxygenation

## N[C@@H](CCC(=O)N[C@@H](CS)C(=O)NCC(=O)O)C(=O)O [GSH, Glutathione]
[1]
  GSH in the mitochondria: restored GSH in the mitochondria
  hepatocellular injury: ameliorated hepatocellular injury

## C[N+](C)(C)C[C@H](O)CC(=O)[O-] [L-Carnitine]
NASH model mice
  progression of NASH: prevents progression of NASH

## CC(=O)N[C@@H](CS)C(=O)O [NAC, N-acetylcysteine]
ethanol-fed rats
  hepatic fatty acid accumulation: decrease hepatic fatty acid accumulation
  inflammatory markers: decrease inflammatory markers
Patients with severe ALD
  hepatorenal syndrome, infection, short-term mortality: decrease hepatorenal syndrome, infection, and short-term mortality

## C[S+](CC[C@H](N)C(=O)O)C[C@H]1O[C@@H](n2cnc3c(N)ncnc32)[C@H](O)[C@@H]1O (stereo partly drawn) [SAMe, S-adenosylmethionine]
[2]
  oral bioavailability: low bioavailability
[3]
  hepatic glutathione levels: significant increase; also recorded: increases hepatic GSH
[4]; ethanol-fed
  hepatic GSH levels: restored hepatic GSH levels
  mitochondrial lesions and leakage: positive effect on mitochondrial lesions and leakage
[1]
  GSH in the mitochondria: restored GSH in the mitochondria
  hepatocellular injury: ameliorated hepatocellular injury
[5]
  oxidative stress and hepatic stellate cell activation: attenuate oxidative stress and hepatic stellate cell activation

## COc1cc(/C=C/C(=O)CC(=O)/C=C/c2ccc(O)c(OC)c2)ccc1O [curcumin, Curcumin]
[6]
  cirrhosis: reverses

## Phosphatidylcholine [PC]
[4]; CCl4 and ethanol-induced
  liver injury: attenuated CCI4 and ethanol-induced liver injury
HCV patients
  albumin-bound hydroxyproline levels: decreased levels
HBV patients
  procollagen-III-peptide levels: reduced levels
